Consider 20 compounds from ChEMBL document CHEMBL4406797, “Histone acetyltransferase inhibitors: An overview in synthesis, structure-activity relationship and molecular mechanism” (Eur J Med Chem, 2019).

The target in test [1] is T1, Histone acetyltransferase KAT2B (Homo sapiens, UniProt Q92831). Briefly: Inhibition of PCAF in human HeLa cells using [3H]-acetyl-CoA as substrate preincubated for 10 mins followed by substrate addition measured after 10 mins by liquid scintillation counting analysis. The class given is cell-based.
Test [2] addresses T1, Histone acetyltransferase KAT2B. The experiment in a line: Displacement of [3H]-acetyl-CoA from recombinant PCAF (unknown origin) expressed in baculovirus expression system preincubated for 10 mins followed by substrate addition measured after 10 mins. Background: Displacement assays read how much labelled ligand stays bound in the presence of the test substance.
In test [3] the target is Histone acetyltransferase KAT5 (Homo sapiens, UniProt Q92993). Briefly: Displacement of [3H]-acetyl-CoA from recombinant Tip60 (unknown origin) at 150 uM using H4-20 as substrate after 5 mins by scintillation counting analysis relative to control.
Test [4] deals with T1, Histone acetyltransferase KAT2B. Briefly: Displacement of [3H]-acetyl-CoA from recombinant PCAF (unknown origin) at >100 uM using H4-20 as substrate after 5 mins by scintillation counting analysis relative to control.
Test [5] addresses T2, Histone acetyltransferase ESA1 (Saccharomyces cerevisiae (strain ATCC 204508 / S288c) (Baker's yeast)) (UniProt Q08649).
T2 sequence (whole entry): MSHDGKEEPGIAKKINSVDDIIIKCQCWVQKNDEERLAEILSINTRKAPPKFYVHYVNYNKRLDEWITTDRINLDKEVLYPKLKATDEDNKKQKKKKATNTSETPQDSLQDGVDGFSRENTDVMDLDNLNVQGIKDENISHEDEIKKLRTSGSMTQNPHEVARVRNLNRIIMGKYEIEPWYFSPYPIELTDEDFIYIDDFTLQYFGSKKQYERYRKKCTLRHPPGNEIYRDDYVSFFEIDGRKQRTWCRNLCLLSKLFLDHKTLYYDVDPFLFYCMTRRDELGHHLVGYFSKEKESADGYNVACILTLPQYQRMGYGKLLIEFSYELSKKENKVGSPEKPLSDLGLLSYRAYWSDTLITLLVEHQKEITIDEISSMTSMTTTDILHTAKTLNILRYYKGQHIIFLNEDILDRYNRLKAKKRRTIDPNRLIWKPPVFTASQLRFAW
The experiment in a line: Displacement of [3H]-acetyl-CoA from recombinant yeast ESA1 at 150 uM using H4-20 as substrate after 5 mins by scintillation counting analysis relative to control.

In test [6] the target is T3, Histone acetyltransferase p300 (Homo sapiens, UniProt Q09472). The experiment in a line: Displacement of [3H]-acetyl-CoA from recombinant P300 (unknown origin) at 150 uM using H4-20 as substrate after 5 mins by scintillation counting analysis relative to control.
For test [7], the target named is T3, Histone acetyltransferase p300. The experiment in a line: Displacement of [3H]-acetyl-CoA from P300 (unknown origin) using peptide as substrate after 60 mins.
Test [8] concerns the target T4, CREB-binding protein (Homo sapiens, UniProt Q92793). Briefly: Inhibition of recombinant CBP (unknown origin) at 500 uM using H3 peptide as substrate after 30 mins in presence of acetyl-CoA by fluorescence assay relative to control.
For test [9], the target named is T4, CREB-binding protein. Briefly: Inhibition of CBP (unknown origin) at 50 uM relative to control.
The target of test [10] is T3, Histone acetyltransferase p300. The experiment in a line: Inhibition of P300 (unknown origin).
For test [11], the target named is Histone deacetylase 1 (Homo sapiens) (UniProt Q13547). Briefly: Inhibition of HDAC1 (unknown origin) relative to control. Particulars: concentration not given here.
Test [12] addresses Histone acetyltransferase KAT2A (Homo sapiens) (UniProt Q92830). The experiment in a line: Inhibition of GCN5 (unknown origin) relative to control. Particulars: concentration not given here.
Test [13] concerns the target T1, Histone acetyltransferase KAT2B. Briefly: Inhibition of PCAF (unknown origin) relative to control. The note with it: concentration not given here.
Test [14] is filed under the species Homo sapiens. Briefly: Inhibition of HAT (unknown origin) relative to control. Also on record: concentration or dose not given beside the values. The note with it: concentration not given here.
Test [15] has as its target T3, Histone acetyltransferase p300. The experiment in a line: Inhibition of human P300 (1284 to1673 residues) catalytic domain expressed in Escherichia coli by SPR analysis. Background: In SPR one partner is held on a chip, and binding of the other changes the refractive index at the surface.
The target is the same in test [16]. The experiment in a line: Displacement of [3H]-acetyl-CoA from recombinant GST-tagged P300 (unknown origin) by scintillation counting analysis.
The subject of test [17] is MDA-MB-231. The experiment in a line: Cytotoxicity against human MDA-MB-231 cells assessed as reduction in cell viability by SRB assay. The format is functional, cell-based. A general note: Sulforhodamine B stains cellular protein and so reports cell mass.
In test [18] the test system is HeLa. Briefly: Cytotoxicity against human HeLa cells assessed as reduction in cell viability by SRB assay. The class given is functional, cell-based.
The subject of test [19] is HCT cell line. Briefly: Cytotoxicity against human HCT cells assessed as reduction in cell viability by SRB assay. The class given is functional, cell-based.
The subject of test [20] is HT-29. Briefly: Cytotoxicity against human HT-29 cells assessed as reduction in cell viability by SRB assay. The class given is functional, cell-based.
The test system of test [21] is Hep 3B2. Briefly: Cytotoxicity against human Hep3B cells assessed as reduction in cell viability by SRB assay. The format is functional, cell-based.
In test [22] the test system is A549. The experiment in a line: Cytotoxicity against human A549 cells assessed as reduction in cell viability by SRB assay. The format is functional, cell-based.
For test [23], the target named is CREB-binding protein/Histone acetyltransferase p300 (Homo sapiens, UniProt Q09472+Q92793). The experiment in a line: Inhibition of p300 (unknown origin)/CBP (unknown origin). The class given is protein assay.

pIC50: −log10 of the molar value.

T3 sequence (Q09472 whole entry): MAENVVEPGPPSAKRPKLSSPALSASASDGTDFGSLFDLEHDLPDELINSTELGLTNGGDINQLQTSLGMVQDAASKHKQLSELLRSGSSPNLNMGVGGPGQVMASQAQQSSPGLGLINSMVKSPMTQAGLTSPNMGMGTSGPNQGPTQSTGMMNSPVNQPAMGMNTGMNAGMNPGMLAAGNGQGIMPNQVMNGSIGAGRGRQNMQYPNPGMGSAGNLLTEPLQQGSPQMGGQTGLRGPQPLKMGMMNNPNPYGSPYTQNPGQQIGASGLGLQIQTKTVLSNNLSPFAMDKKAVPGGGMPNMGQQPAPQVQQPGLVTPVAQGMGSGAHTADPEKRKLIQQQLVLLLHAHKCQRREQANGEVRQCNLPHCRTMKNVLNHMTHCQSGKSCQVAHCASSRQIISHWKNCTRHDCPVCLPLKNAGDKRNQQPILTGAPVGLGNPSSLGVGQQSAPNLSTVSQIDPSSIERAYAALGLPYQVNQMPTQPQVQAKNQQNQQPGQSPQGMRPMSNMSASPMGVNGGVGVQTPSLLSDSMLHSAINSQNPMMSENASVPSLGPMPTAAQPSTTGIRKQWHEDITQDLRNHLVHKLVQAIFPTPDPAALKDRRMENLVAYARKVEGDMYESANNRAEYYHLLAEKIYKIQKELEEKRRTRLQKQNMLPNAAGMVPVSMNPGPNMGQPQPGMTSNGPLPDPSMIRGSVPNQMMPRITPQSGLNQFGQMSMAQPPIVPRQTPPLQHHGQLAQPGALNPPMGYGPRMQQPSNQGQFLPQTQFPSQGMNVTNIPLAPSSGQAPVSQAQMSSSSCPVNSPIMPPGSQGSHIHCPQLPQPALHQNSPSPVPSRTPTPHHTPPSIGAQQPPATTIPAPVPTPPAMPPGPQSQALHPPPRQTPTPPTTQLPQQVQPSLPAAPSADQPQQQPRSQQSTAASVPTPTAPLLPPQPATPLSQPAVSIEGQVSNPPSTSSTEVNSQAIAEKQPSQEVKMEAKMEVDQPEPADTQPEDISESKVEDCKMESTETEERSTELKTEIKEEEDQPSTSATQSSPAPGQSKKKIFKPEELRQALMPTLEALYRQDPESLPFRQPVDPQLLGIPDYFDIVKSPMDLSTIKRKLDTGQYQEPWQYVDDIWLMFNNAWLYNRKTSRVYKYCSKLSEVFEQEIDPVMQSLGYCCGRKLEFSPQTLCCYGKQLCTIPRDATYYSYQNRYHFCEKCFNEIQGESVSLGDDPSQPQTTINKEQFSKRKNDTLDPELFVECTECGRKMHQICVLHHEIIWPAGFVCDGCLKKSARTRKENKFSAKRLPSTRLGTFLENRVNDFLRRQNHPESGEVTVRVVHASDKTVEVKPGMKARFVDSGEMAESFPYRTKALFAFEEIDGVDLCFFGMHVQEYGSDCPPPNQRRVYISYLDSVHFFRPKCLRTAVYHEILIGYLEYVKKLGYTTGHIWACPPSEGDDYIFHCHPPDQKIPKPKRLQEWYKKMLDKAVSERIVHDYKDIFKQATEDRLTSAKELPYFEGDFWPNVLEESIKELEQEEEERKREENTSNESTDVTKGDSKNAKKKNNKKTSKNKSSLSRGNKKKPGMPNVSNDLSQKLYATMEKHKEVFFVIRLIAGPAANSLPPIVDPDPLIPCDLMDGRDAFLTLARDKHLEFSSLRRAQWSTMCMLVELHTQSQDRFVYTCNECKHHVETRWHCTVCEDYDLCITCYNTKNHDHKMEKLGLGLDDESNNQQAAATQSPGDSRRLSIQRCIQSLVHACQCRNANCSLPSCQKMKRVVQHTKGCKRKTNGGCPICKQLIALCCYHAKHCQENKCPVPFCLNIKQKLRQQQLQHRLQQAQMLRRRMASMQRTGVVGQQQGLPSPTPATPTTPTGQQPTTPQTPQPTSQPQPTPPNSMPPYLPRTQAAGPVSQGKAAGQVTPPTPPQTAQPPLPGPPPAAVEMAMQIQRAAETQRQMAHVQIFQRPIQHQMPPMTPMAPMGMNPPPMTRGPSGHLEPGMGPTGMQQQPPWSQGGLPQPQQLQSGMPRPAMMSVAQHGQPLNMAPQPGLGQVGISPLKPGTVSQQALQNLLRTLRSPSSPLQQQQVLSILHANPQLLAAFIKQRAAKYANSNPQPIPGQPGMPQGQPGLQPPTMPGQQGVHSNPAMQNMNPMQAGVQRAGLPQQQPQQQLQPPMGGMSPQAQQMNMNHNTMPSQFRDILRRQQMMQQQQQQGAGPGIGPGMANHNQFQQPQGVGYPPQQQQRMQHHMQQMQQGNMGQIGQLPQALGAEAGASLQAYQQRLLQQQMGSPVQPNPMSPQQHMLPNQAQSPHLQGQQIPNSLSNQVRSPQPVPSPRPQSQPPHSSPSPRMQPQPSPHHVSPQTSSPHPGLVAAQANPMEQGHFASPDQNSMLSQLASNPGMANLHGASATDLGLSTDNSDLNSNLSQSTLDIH
T4 sequence (Q92793 2-2442 limits assumed): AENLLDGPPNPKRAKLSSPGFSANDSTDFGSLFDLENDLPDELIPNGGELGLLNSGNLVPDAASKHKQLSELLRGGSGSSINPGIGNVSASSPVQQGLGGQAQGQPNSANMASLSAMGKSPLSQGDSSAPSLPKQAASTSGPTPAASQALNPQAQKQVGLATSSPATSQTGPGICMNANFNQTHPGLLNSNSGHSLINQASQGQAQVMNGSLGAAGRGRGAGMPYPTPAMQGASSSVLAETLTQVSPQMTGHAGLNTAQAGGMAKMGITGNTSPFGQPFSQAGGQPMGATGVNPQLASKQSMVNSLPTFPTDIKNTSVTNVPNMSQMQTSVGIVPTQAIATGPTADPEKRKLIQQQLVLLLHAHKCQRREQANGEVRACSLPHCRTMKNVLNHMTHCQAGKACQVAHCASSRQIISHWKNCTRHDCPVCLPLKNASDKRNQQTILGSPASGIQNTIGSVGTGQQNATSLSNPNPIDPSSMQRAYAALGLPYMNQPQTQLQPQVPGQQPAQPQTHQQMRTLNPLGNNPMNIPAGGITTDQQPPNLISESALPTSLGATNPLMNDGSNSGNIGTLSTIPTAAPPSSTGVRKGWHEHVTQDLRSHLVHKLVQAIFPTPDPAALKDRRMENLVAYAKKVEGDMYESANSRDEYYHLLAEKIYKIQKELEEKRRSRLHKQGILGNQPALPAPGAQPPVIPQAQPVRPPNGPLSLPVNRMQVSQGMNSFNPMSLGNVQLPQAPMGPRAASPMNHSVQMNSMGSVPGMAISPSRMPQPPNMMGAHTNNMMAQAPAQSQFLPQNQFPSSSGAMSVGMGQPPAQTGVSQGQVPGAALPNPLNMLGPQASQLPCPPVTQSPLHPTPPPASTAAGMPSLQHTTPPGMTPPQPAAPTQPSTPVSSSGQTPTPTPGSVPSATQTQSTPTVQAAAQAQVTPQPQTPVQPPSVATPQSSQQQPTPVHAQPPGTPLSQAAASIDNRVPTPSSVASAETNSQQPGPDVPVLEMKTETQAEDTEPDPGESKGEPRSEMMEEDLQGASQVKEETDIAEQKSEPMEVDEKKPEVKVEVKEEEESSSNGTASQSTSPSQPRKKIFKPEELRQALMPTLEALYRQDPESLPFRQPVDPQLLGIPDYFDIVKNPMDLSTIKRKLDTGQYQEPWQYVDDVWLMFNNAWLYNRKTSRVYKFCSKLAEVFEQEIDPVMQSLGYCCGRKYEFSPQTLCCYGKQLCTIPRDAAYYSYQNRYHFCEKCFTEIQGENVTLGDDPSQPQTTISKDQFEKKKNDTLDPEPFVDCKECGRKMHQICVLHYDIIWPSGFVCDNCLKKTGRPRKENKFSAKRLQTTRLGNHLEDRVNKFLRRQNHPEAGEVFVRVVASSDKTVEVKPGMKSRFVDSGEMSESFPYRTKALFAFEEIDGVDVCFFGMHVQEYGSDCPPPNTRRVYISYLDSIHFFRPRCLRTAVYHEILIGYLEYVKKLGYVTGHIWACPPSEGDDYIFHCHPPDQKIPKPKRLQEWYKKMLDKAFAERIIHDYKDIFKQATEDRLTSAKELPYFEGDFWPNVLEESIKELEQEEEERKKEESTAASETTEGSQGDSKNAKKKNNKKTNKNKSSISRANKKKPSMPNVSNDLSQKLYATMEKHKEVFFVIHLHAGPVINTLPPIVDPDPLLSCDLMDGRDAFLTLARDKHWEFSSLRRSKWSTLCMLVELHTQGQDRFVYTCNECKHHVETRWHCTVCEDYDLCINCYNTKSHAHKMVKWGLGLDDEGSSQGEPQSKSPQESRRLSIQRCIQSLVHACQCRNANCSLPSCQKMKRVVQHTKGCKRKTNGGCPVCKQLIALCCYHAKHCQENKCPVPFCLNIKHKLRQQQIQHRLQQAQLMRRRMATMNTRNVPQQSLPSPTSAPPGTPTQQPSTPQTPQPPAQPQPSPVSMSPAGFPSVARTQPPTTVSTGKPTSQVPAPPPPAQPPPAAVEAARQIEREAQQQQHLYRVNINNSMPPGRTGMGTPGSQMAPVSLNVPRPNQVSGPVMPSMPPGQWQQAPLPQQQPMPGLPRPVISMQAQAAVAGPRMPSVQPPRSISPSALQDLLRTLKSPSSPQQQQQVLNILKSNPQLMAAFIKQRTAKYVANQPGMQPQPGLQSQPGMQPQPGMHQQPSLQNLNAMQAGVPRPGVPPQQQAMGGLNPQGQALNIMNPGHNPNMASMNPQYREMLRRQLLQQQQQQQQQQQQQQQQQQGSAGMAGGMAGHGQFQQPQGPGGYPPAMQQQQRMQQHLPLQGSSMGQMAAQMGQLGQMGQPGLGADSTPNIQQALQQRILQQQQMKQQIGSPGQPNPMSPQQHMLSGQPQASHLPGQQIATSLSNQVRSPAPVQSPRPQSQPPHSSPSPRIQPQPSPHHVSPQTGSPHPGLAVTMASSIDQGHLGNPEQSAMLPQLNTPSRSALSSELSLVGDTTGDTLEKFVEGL

One may read the pIC50 as the IC50 on a negative log10 scale, so that one unit is a factor of ten. Regarding `CC1=CC(=O)c2c(O)cccc2C1=O` [PLUMBAGIN], the pIC50 in test [1] and in test [2] was under 4.30 throughout.
The term inhibition denotes the change of the read-out against control, counted positive when it falls. On to `COc1ccc(C2CC(c3cccs3)=NN2c2nc(-c3ccc(N4C(=O)c5ccccc5C4=O)cc3)cs2)cc1OC` (configuration not stated), for which the inhibition in [3], in [4], in test [5] and in [6] was 50% in each case.
`COc1cc2c(cc1OC)-c1cc3ccc(OC)c(OCc4ccccc4)c3c[n+]1CCC2` showed a pIC50 in [7] of over 5.00.
As to `CCOC(=O)C1C/C(=C\c2ccc(O)c(Br)c2)C(=O)/C(=C/c2ccc(O)c(Br)c2)C1` (configuration not stated), the inhibition in [8] worked out at 85%.
In the case of `CCCCCc1nc2ccccc2c(O)c1C(=O)O`, in [9], the inhibition is 81%.
`CC(=O)N1CC(C)Sc2cc(S(=O)(=O)NCc3ccccc3)ccc21` (configuration not stated): the pIC50 in test [10] is 5.47.
In the case of `CC(C)=CC[C@H]1C[C@@]23C[C@@H](CC=C(C)C)C(C)(C)[C@@](CC=C(C)C)(C(=O)C(C(=O)c4ccc(OS(C)(=O)=O)c(OS(C)(=O)=O)c4)=C2OC1(C)C)C3=O`, the pIC50 in test [10] was 5.15 to 5.30. In addition, the inhibition in test [11], in test [12] and in [13] was under 10% each time.
Take `O=C1/C(=C/c2ccc(O)c(Br)c2)CNC/C1=C\c1ccc(O)c(Br)c1`: the inhibition in test [8] came to 85%.
For `Cc1cc(/C=C2\CCC/C(=C\c3cc(C)c(O)c(C)c3)C2=O)cc(C)c1O`, the inhibition in test [8] turned out to be 40%.
On to `COc1cc2c(cc1OC)-c1cc3ccc(OC)c(OC)c3c[n+]1CCC2`, for which the pIC50 in [7] is 6.38.
In the case of `CC(C)=CC[C@H]1C[C@@]23C[C@@H](CC=C(C)C)C(C)(C)[C@@](CC=C(C)C)(C(=O)C(C(=O)c4ccc(C(C)C)c(O)c4)=C2OC1(C)C)C3=O`, in [10], the pIC50 was 5.15 to 5.30.
As to `O=C(O[C@@H]1Cc2c(O)cc(O)cc2O[C@@H]1c1cc(O)c(O)c(O)c1)c1cc(O)c(O)c(O)c1`, in test [14], the inhibition was determined as 50%.
Consider `O=C1/C(=C/c2ccc(O)cc2)CCC/C1=C\c1ccc(O)cc1`, for which the inhibition in [8] was 40%.
Consider `CCCCCCCCCCCCCCC=C(C(=O)O)C(=O)O`, for which, in test [15], the pIC50 is 5.96.
In the case of `N=C(N)NCCC[C@@H]1NC(=O)/C(=C\c2ccc(O)c(OCC[C@H](NC(=O)C[C@](O)(CC(=O)O)C(=O)O)C(=O)O)c2)NC1=O` (stereo in doubt), the pIC50 in [16] was 7.66.
As for `CCCCCCCCCCCCCCCC(=O)Nc1ccccc1C(=O)Nc1ccc(C(=O)O)cc1`, the pIC50 in test [17], in [18], in test [19], in [20], in test [21] and in test [22] was 4.30 to 4.60 in each case.
`COc1cc2c(cc1OC)C[N+]1(Cc3ccccc3)CCCc3cc4c(cc3C1C2)OCO4` (configuration not stated) had a pIC50 in [7] of 4.36 to 5.74.
Regarding `CCCCCCCCCCCCCC(=O)Nc1ccccc1C(=O)Nc1ccc(C(=O)O)cc1`, the pIC50 in test [17], in test [18], in test [19], in test [20], in test [21] and in test [22] was 4.30 to 4.60 in each case.
Take `COc1ccc2c(c1OC)C[N+]1(Cc3ccccc3)CCCc3cc4c(cc3C1C2)OCO4` (configuration not stated): the pIC50 in test [7] is 4.36 to 5.74.
As a reminder, the IC50 is the concentration at which inhibition is half-maximal. In turn, `Oc1cc(O)c2cc(O)c(-c3cc(O)c(O)c(O)c3)[o+]c2c1.[Cl-]` [DELPHINIDIN CHLORIDE] registered an IC50 in test [23] of 30 µM.
